Test results as given in PubChem BioAssay AID248 (DTP/NCI, 2004).
“And” between values parts separate entries of the source, which are not always exact repeats. Equal entries are not always repeated. Inconclusive results and toxic doses are left out. Rule as the data show it: active = T/C of 150% or more; inactive = T/C below 125%.

Test system: L1210 leukemia ip in BDF1 mice, survival T/C
Experiment: NCI In Vivo Anticancer Drug Screen. Data for tumor model L1210 Leukemia (intraperitoneal) in B6D2F1 (BDF1) mice
Conditions: endpoint: mean survival time, higher = longer survival
Summary of the method: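 Survival endpoint. Drug-treated group vs vehicle group, expressed as T divided by C. Tumor passaged by transplantation.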

[1] = dose: 25.0 mg/kg/injection, schedule: Q04DX003 (ip), vehicle: saline
[2] = dose: 50.0 mg/kg/injection, schedule: Q04DX003 (ip), vehicle: saline
[3] = dose: 100.0 mg/kg/injection, schedule: Q04DX003 (ip), vehicle: saline
[4] = dose: 200.0 mg/kg/injection, schedule: Q04DX003 (ip), vehicle: saline
[5] = dose: 100.0 mg/kg/injection, schedule: Q01DX009 (ip), vehicle: Klucel (hydroxypropylcellulose) (HPC)
[6] = dose: 100.0 mg/kg/injection, schedule: Q04DX003 (ip), vehicle: Klucel (hydroxypropylcellulose) (HPC)
[7] = dose: 200.0 mg/kg/injection, schedule: Q04DX003 (ip), vehicle: Klucel (hydroxypropylcellulose) (HPC)
[8] = dose: 400.0 mg/kg/injection, schedule: Q04DX003 (ip), vehicle: Klucel (hydroxypropylcellulose) (HPC)
[9] = dose: 200.0 mg/kg/injection, schedule: Q01DX009 (ip), vehicle: Klucel (hydroxypropylcellulose) (HPC)
[10] = dose: 400.0 mg/kg/injection, schedule: Q01DX009 (ip), vehicle: Klucel (hydroxypropylcellulose) (HPC)
[11] = dose: 100.0 mg/kg/injection, schedule: Q01DX009 (ip), vehicle: saline with Tween-80
[12] = dose: 200.0 mg/kg/injection, schedule: Q01DX009 (ip), vehicle: saline with Tween-80
[13] = dose: 50.0 mg/kg/injection, schedule: Q01DX001 (ip), vehicle: saline
[14] = dose: 100.0 mg/kg/injection, schedule: Q01DX001 (ip), vehicle: saline
[15] = dose: 200.0 mg/kg/injection, schedule: Q01DX001 (ip), vehicle: saline
[16] = dose: 400.0 mg/kg/injection, schedule: Q01DX001 (ip), vehicle: saline

Measured: T/C

Cc1cc(=O)c2cccc(-c3ccccc3)c2[nH]1
inactive: dose: 25.0 mg/kg/injection, schedule: Q01DX009 (ip), vehicle: acetone 95 % of control | [1] 101 % of control | dose: 50.0 mg/kg/injection, schedule: Q01DX009 (ip), vehicle: acetone 92 % of control | [2] 100 % of control | dose: 100.0 mg/kg/injection, schedule: Q01DX009 (ip), vehicle: acetone 92 % of control | [3] 100 % of control | [4] 96 % of control

CCC(Br)C(=O)Nc1c(C)cccc1Cl (stereo not drawn)
inactive: dose: 25.0 mg/kg/injection, schedule: Q01DX009 (ip), vehicle: Klucel (hydroxypropylcellulose) (HPC) 97 % of control | dose: 50.0 mg/kg/injection, schedule: Q01DX009 (ip), vehicle: Klucel (hydroxypropylcellulose) (HPC) 98 % of control | [5] 94 % of control and 101 % of control | [6] 97 % of control | [7] 95 % of control | [8] 97 % of control

C1=C(c2ccccc2)c2c(c3ccccc3c3ccccc23)C(c2ccccc2)=CC1
inactive: dose: 50.0 mg/kg/injection, schedule: Q01DX001 (ip), vehicle: carboxymethylcellulose (CMC) 100 % of control | dose: 100.0 mg/kg/injection, schedule: Q01DX001 (ip), vehicle: carboxymethylcellulose (CMC) 100 % of control | dose: 200.0 mg/kg/injection, schedule: Q01DX001 (ip), vehicle: carboxymethylcellulose (CMC) 94 % of control | dose: 400.0 mg/kg/injection, schedule: Q01DX001 (ip), vehicle: carboxymethylcellulose (CMC) 94 % of control

CC(=O)Nc1ccc(C(=O)NNC2=C(NNC(=O)c3ccc(NC(C)=O)cc3)C(=O)c3ccccc3C2=O)cc1
inactive: dose: 75.0 mg/kg/injection, schedule: Q04DX003 (ip), vehicle: saline 100 % of control | dose: 150.0 mg/kg/injection, schedule: Q04DX003 (ip), vehicle: saline 91 % of control | dose: 300.0 mg/kg/injection, schedule: Q04DX003 (ip), vehicle: saline 91 % of control

O=C(O)C(c1cc(Cl)co1)N1C(=O)c2ccccc2C1=O (stereo not drawn)
inactive: [6] 103 % of control | [7] 101 % of control | [8] 103 % of control

CNC(=S)N/N=C/c1ccc(OC)c(OC)c1OC
inactive: [5] 102 % of control | [9] 120 % of control | [10] 98 % of control

Cc1ccc(S(=O)N(OCc2ccccc2)S(=O)c2ccc(C)cc2)cc1 (stereo not drawn)
inactive: dose: 100.0 mg/kg/injection, schedule: Q04DX002 (ip), vehicle: other 100 % of control | dose: 200.0 mg/kg/injection, schedule: Q04DX002 (ip), vehicle: other 100 % of control | dose: 400.0 mg/kg/injection, schedule: Q04DX002 (ip), vehicle: other 100 % of control

Nc1ccc(Cn2ccc(=O)[nH]c2=O)cc1
inactive: dose: 100.0 mg/kg/injection, schedule: Q01DX001 (ip), vehicle: saline with Tween-80 102 % of control | dose: 200.0 mg/kg/injection, schedule: Q01DX001 (ip), vehicle: saline with Tween-80 94 % of control | dose: 400.0 mg/kg/injection, schedule: Q01DX001 (ip), vehicle: saline with Tween-80 87 % of control

CC(=O)OC1C(OS(=O)(=O)c2ccc(C)cc2)C(COC(=O)c2ccccc2)OC1n1cnc2c(NC(=O)c3ccccc3)ncnc21 (stereo not drawn)
inactive: dose: 100.0 mg/kg/injection, schedule: Q01DX005 (ip), vehicle: saline 97 % of control | dose: 200.0 mg/kg/injection, schedule: Q01DX005 (ip), vehicle: saline 90 % of control

CC(=O)c1cccc(NC(=O)N2CCN(c3ccccc3)CC2)c1
inactive: [11] 111 % of control | [12] 100 % of control

CC(C)(C)c1cc(O)c(C(C)(C)C)cc1O
inactive: [13] 90 % of control | [14] 96 % of control | dose: 100.0 mg/kg/injection, schedule: Q04DX002 (ip), vehicle: gum acacia 106 % of control | [15] 94 % of control | dose: 200.0 mg/kg/injection, schedule: Q04DX002 (ip), vehicle: gum acacia 106 % of control | [16] 98 % of control | dose: 400.0 mg/kg/injection, schedule: Q04DX002 (ip), vehicle: gum acacia 108 % of control

CCOC(=O)c1ccc(NC(=O)Cn2cnc3c(=S)nc[nH]c32)cc1
inactive: dose: 25.0 mg/kg/injection, schedule: Q01DX001 (ip), vehicle: Klucel (hydroxypropylcellulose) (HPC) 92 % of control | dose: 50.0 mg/kg/injection, schedule: Q01DX001 (ip), vehicle: Klucel (hydroxypropylcellulose) (HPC) 106 % of control | dose: 100.0 mg/kg/injection, schedule: Q01DX001 (ip), vehicle: Klucel (hydroxypropylcellulose) (HPC) 95 % of control

CNC(=S)N/N=C(/C)C(=O)O
inactive: [5] 96 % of control | [6] 96 % of control | [9] 96 % of control | [7] 91 % of control | [10] 102 % of control | [8] 88 % of control

COc1cc([N+](=O)[O-])ccc1NC(=O)Cc1ccccc1
inactive: [11] 111 % of control | [12] 91 % of control | dose: 400.0 mg/kg/injection, schedule: Q01DX009 (ip), vehicle: saline with Tween-80 96 % of control

CCCCCCCNC(=S)OCC
inactive: dose: 100.0 mg/kg/injection, schedule: Q04DX002 (ip), vehicle: saline with Tween-80 100 % of control | dose: 200.0 mg/kg/injection, schedule: Q04DX002 (ip), vehicle: saline with Tween-80 107 % of control | dose: 400.0 mg/kg/injection, schedule: Q04DX002 (ip), vehicle: saline with Tween-80 107 % of control

CCCCNP(=O)(OCC)OCC
inactive: dose: 12.5 mg/kg/injection, schedule: Q01DX009 (ip), vehicle: saline 91 % of control | dose: 12.5 mg/kg/injection, schedule: Q04DX003 (ip), vehicle: saline 101 % of control | dose: 25.0 mg/kg/injection, schedule: Q01DX009 (ip), vehicle: saline 104 % of control | [1] 113 % of control | dose: 50.0 mg/kg/injection, schedule: Q01DX009 (ip), vehicle: saline 104 % of control | [2] 101 % of control | dose: 100.0 mg/kg/injection, schedule: Q01DX009 (ip), vehicle: saline 109 % of control | [3] 101 % of control | dose: 200.0 mg/kg/injection, schedule: Q01DX009 (ip), vehicle: saline 96 % of control | [4] 101 % of control

COc1ccc2c(c1)CCCN2CCC#N
inactive: dose: 50.0 mg/kg/injection, schedule: Q04DX003 (ip), vehicle: other 106 % of control | dose: 100.0 mg/kg/injection, schedule: Q04DX003 (ip), vehicle: other 92 % of control | dose: 200.0 mg/kg/injection, schedule: Q04DX003 (ip), vehicle: other 108 % of control | dose: 400.0 mg/kg/injection, schedule: Q04DX003 (ip), vehicle: other 99 % of control

CCOC(OCC)c1ccccc1
inactive: [13] 113 % of control | [14] 115 % of control | [15] 109 % of control | [16] 113 % of control

Nc1ccc(NC(=O)c2ccc(C(=O)Nc3ccc(N)cc3)cc2)cc1
inactive: dose: 30.0 mg/kg/injection, schedule: Q01DX Z (ip), vehicle: methylcellulose (MC) 103 % of control | dose: 60.0 mg/kg/injection, schedule: Q01DX Z (ip), vehicle: methylcellulose (MC) 103 % of control | dose: 120.0 mg/kg/injection, schedule: Q01DX Z (ip), vehicle: methylcellulose (MC) 95 % of control | dose: 125.0 mg/kg/injection, schedule: Q01DX Z (ip), vehicle: water 96 % of control | dose: 250.0 mg/kg/injection, schedule: Q01DX Z (ip), vehicle: water 93 % of control | dose: 500.0 mg/kg/injection, schedule: Q01DX Z (ip), vehicle: water 98 % of control

C/C(=N\O)c1ccc2nc(C)cc(Cl)c2c1
inactive: [14] 102 % of control | [15] 109 % of control | [16] 95 % of control

CCN(CC)CC(OC(=O)C(c1ccccc1)c1ccccc1)C(COC)OC (stereo not drawn)
inactive: dose: 55.0 mg/kg/injection, schedule: Q01DX Z (ip), vehicle: saline 109 % of control | dose: 83.0 mg/kg/injection, schedule: Q01DX Z (ip), vehicle: saline 96 % of control | dose: 125.0 mg/kg/injection, schedule: Q01DX Z (ip), vehicle: saline 91 % of control
